Results reported in patent US4666890A, “Peptide, process for preparation thereof and use thereof” (priority 1978, dated 1987).

Experiments:
[1] = test system: mice; assay: Acute toxicity in mice; format: in vivo; details: 1 g/kg (i.v.)
Source text: ACUTE TOXICITY IN MICE of FR-900156
1 g/kg (i.v.): no toxicity.

[2] = test system: Mice (DDY male 5-6 W); assay: Blood stream clearance of carbon; format: in vivo
Description: 1. Carbon suspension. Rotoring drawing ink (170 mg carbon/ml.) was diluted to 1/5 of the original concentration in saline containing 1% gelatin.
2. 0.1% aqueous sodium carbonate solution.
Mice (DDY male 5-6 W) were injected via the tail vein with a dose of 0.01 ml/g body weight of carbon. Blood samples were taken by means of a pointed capillary pippet calibrated to hold a 50 μl and previously washed in heparin. This was plunged into the retrooribital venous sinus at the nasal angle of the eye. The samples were removed at 3 and 6 min. The blood was immediately discharged into 3.0 ml. of the sodium carbonate solution. This hemolyszed the blood and allowed the quantitation of carbon. The samples were then read in a spectrophotometer at 660 nm, the log concentration being obtained from a previously determined standard curve. The clearance value K may be determined by plotting log carbon concentration against time according to the following relationship; [formula] in which T1 and T2 represent the time in min when the sample were withdrawn and C1 and C2 represent the concentrations of carbon in the blood at the time T1 and T2, respectively.
The aqueous solution of the test compound as given was administered subcutaneously to mice. Twenty four hours later, blood stream clearance of carbon was measured. K value obtained with treated mice was compared with that of control mice.

SMILES | Acute toxicity in mice [1] | Ktreated /Kcontrol ([2]; dose 1 mg/mouse) | Ktreated /Kcontrol ([2]; dose 10 mg/mouse)
C[C@H](NC(=O)[C@@H](C)O)C(=O)N[C@H](CCC(=O)N[C@@H](CCC[C@@H](N)C(=O)O)C(=O)NCC(=O)O)C(=O)O [FR-900156 substance] | no toxicity |  | 
c1ccc([C@H]2CN3CCSC3=N2)cc1 [Levamisol] |  | 0.5 | death
